In US20250295583A1, “INHALED HEDGEHOG INHIBITORS” (WBX PHARMA, INC., priority 2024, published 2025):
Where “and” joins values, the source holds several entries; their conditions need not be identical. Identical values can stand only once.

Key:
[1] = assay type: physicochemical
Method: Four dry powder formulations were developed using spray drying with two being acceptable for human use. […] The selected bulking agents were mannitol or trehalose with dispersibility enhancer: L-leucine (˜0.55 wt % solubility limit in 50:50 EtOH: water). Two mannitol formulations and two trehalose formulations with different amounts of L-leucine 10% and 26% were made using a BLD-35 spray dryer. The tested dose was 10 mg of the formulation in a Berry RSO1 high resistance inhaler.

[2] = Accumulation factor calculation at steady state; settings: half-life 3 days, dosing interval 1 day, first-order kinetics
Excerpt: This calculation assumes the API is being administered in a clinically effective formulation as disclosed herein, at regular intervals, and that the pharmacokinetics of the candidate compound follow first-order kinetics where the rate of drug elimination is proportional to its concentration. To calculate the multiple of the initial drug concentration at steady state (known as the “accumulation factor”), the formula:
Substitute into the formula: With τ=1 day: AF=1/(1−e^(−0.231*1))≈1/(1−e^(−0.231)).
Evaluate the exponential: e^(−0.231)≈0.794.

IPF patients = settings: 21 IPF patients, cited from earlier work; for patients who discontinued the drug: combination trial of vismodegib plus pirfenidone
[3] = Estimate of epithelial lining fluid (ELF) concentration after inhaled delivery, from pirfenidone data; parameters: species or system human; settings: for predicted ELF concentration adjusted for 200 μg delivery: inhaled dry powder, 200 μg delivered; for predicted ELF molar concentration if 45 mg delivered: inhaled, extrapolated from pirfenidone data
Method: The physical delivery of any drug by the inhalation route may be estimated by data generated in the delivery of inhaled pirfenidone.
Again, since delivery is just a physical process, one can estimate ELF concentrations for 200 μg of taladegib delivered as noted above based on pirfenidone data.

[4] = Published pharmacokinetics of oral vismodegib; assay type: in vivo, human; settings: once daily oral therapy
Excerpt: Only unbound drug can freely cross the alveolar epithelial barrier.

[5] = Estimate of systemic exposure after inhaled dosing versus oral dose; parameters: species or system human
Method: This would be about 6 half-lives. Depending on the half-life in the epithelial lining fluid, one to six inhalations a day would provide adequate inhibition of hedgehog receptors. At the highest dose frequency (6 inhalations/day), the total delivered dose would approximate 3.6 mg.

[6] = cited from earlier work
[7] = 150 mg daily oral dose, cited from earlier work
IPF = settings: given orally alone as a monotherapy; cited from earlier work
[8] = cited from earlier work; remark: listed apart in the source
[9] = cited from earlier work; remark: listed apart in the source
[10] = test system: subjects with mild to moderate IPF; settings: cited from earlier work

CC(C)C[C@H](N)C(=O)O [L-leucine]
solubility limit in 50:50 EtOH: water [1]: ~0.55 wt %

CS(=O)(=O)c1ccc(C(=O)Nc2ccc(Cl)c(-c3ccccn3)c2)c(Cl)c1 [vismodegib, Vismodegib]
amount dissolved in 50:50 EtOH: water (wt/wt) solution ([1]; 50:50 EtOH: water (wt/wt)): 4% | accumulation factor, steady state concentration versus after the first dose [2]: about 4.85 times | patients who discontinued the drug (IPF patients): 42.9% | lung function and shortness of breath (IPF patients; vismodegib 150 mg daily plus pirfenidone 801 mg three times daily, 24 weeks, on average): improved | patients reporting at least one treatment-emergent adverse event (IPF patients; vismodegib 150 mg daily plus pirfenidone, 24 weeks): all patients | predicted ELF concentration adjusted for 200 μg delivery [3]: 1.71 µmol/L | predicted ELF molar concentration if 45 mg delivered [3]: 388 µmol/L | plasma concentration nadir, of the peak [4]: about 80% | total systemic exposure ([5]; six administrations a day of a 30 mg capsule (delivered dose 600 μg each)): 3.6 mg | plasma protein bound [6]: 98% | plasma protein binding, in words ([6]; to albumin and alpha-1 acid glycoprotein): highly protein-bound | mean unbound concentration ([7]; steady state): 109 ± 58 nM | peak plasma concentration at steady state [7]: 22.6 ± 10.8 µmol/L

COC(=O)c1ccc2c(c1)NC(=O)/C2=C(\Nc1ccc(N(C)C(=O)CN2CCN(C)CC2)cc1)c1ccccc1 [nintedanib]
slowing of the progression of the disease (IPF): about 50%

Cc1ccc(=O)n(-c2ccccc2)c1 [pirfenidone]
patients who discontinued the drug (IPF patients): 33.3% | slowing of the progression of the disease (IPF): about 50% | amount delivered to the lung ([8]; 100 mg dose in the nebulizer, 24 hour urine analysis): 45 mg | epithelial lining fluid concentration ([8]; aerosolized, normal volunteers, average): 135 µg/mL

CN(C(=O)c1ccc(F)cc1C(F)(F)F)C1CCN(c2nnc(-c3ccnn3C)c3ccccc23)CC1 [taladegib, Taladegib]
mean concentration at steady state ([9]; 200 mg daily oral dose): about 0.8 μmol/L | absorption ([9]; 200 mg oral dose): approximately 30% | ELF concentration versus that achieved by 200 mg oral dose of taladegib (unbound) ([3]; 200 μg inhaled delivered dose): ≈ 29 fold and > 29 fold | predicted ELF concentration adjusted for 200 μg delivery [3]: 1.16 µmol/L | predicted ELF molar concentration if 45 mg delivered [3]: 264 µmol/L | systemic exposure/absorption relative to the oral dose ([5]; six inhalations a day, total 3.6 mg): less than 10% | plasma protein bound [6]: 95% | alopecia ([10]; oral taladegib group): 52% | dysgeusia ([10]; oral taladegib group): 57% | muscle spasms ([10]; oral taladegib group): 43% | lung fibrosis by high resolution CT scan ([10]; oral taladegib versus slight increase in placebo group): decreased lung fibrosis | improvement in FVC ([10]; oral taladegib, at 12 weeks, on average, placebo 1.3% loss (p=0.035)): 1.9%
